From patent publication US8993574B2, “Pyrrole antifungal agents” (F2G Ltd, priority 2008, dated 2015)

Key:
Assay type in all cases: cell-based
Aspergillus terreus AT4 [1] = experiment: MIC, YAG medium; conditions: 24 h at 35° C, MIC banded into grades
Summary of the method: (§1)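 Broth microdilution in YAG medium tests compound over 50-0.05 mg/L against spores at 1−2×10^4 cfu/mL. After 24 h incubation at 35° C, optical density at 485 nm gives growth, and the MIC is the lowest concentration reducing it by more than 70% relative to untreated control.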

Aspergillus niger [2] = experiment: MIC, YAG medium; conditions: 24 h at 35° C, MIC banded into grades
Summary of the method: as §1

Aspergillus terreus AT49 [3] = experiment: MIC, YAG medium; conditions: 24 h at 35° C, MIC banded into grades
Summary of the method: as §1

[4] = test system: Aspergillus fumigatus AF210; experiment: MIC, YAG medium; conditions: 24 h at 35° C, MIC banded into grades
Summary of the method: as §1

[5] = test system: Aspergillus fumigatus AF293; experiment: MIC, YAG medium; conditions: 24 h at 35° C, MIC banded into grades
Summary of the method: as §1

Aspergillus flavus [6] = experiment: MIC, YAG medium; conditions: 24 h at 35° C, MIC banded into grades
Summary of the method: as §1

Aspergillus terreus AT4 [7] = experiment: MIC, RPMI medium; conditions: MIC banded into grades
Summary of the method: (§2)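 Fungi are tested in RPMI buffered with 0.135 M MOPS (pH 7.0) plus 2% glucose, inoculum 1−2×10^4 cfu/mL, against doubling compound dilutions spanning 50-0.05 mg/L. After 24-48 h at 35° C, the MIC is the lowest concentration suppressing growth by >80% against drug-free control.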

Aspergillus niger [8] = experiment: MIC, RPMI medium; conditions: MIC banded into grades
Summary of the method: as §2

Candida parapsilosis = experiment: MIC, RPMI medium; conditions: 24-48 h at 35° C., >80% growth inhibition, banded into grades
Summary of the method: as §2

Aspergillus terreus AT49 [9] = experiment: MIC, RPMI medium; conditions: MIC banded into grades
Summary of the method: as §2

[10] = test system: Aspergillus fumigatus AF210; experiment: MIC, RPMI medium; conditions: MIC banded into grades
Summary of the method: as §2

[11] = test system: Aspergillus fumigatus AF293; experiment: MIC, RPMI medium; conditions: MIC banded into grades
Summary of the method: as §2

Aspergillus flavus [12] = experiment: MIC, RPMI medium; conditions: MIC banded into grades
Summary of the method: as §2

Candida glabrata = experiment: MIC, RPMI medium; conditions: 24-48 h at 35° C., >80% growth inhibition, banded into grades
Summary of the method: as §2

Candida tropicalis = experiment: MIC, RPMI medium; conditions: 24-48 h at 35° C., >80% growth inhibition, banded into grades
Summary of the method: as §2

Candida krusei = experiment: MIC, RPMI medium; conditions: 24-48 h at 35° C., >80% growth inhibition, banded into grades
Summary of the method: as §2

Candida albicans = experiment: MIC, RPMI medium; conditions: 24-48 h at 35° C., >80% growth inhibition, banded into grades
Summary of the method: as §2

Structure (SMILES) | MIC grade, A. terreus (Aspergillus terreus AT4 [1]) | MIC grade, A. niger (Aspergillus niger [2]) | MIC grade, A. terreus 49 (Aspergillus terreus AT49 [3]) | MIC grade, A. fumigatus 210 [4] | MIC grade, A. fumigatus [5] | MIC grade, A. flavus (Aspergillus flavus [6]) | MIC grade, A. terreus (Aspergillus terreus AT4 [7]) | MIC grade, A. niger (Aspergillus niger [8]) | Candida MIC, C. parapsilosis (Candida parapsilosis) | MIC grade, A. terreus 49 (Aspergillus terreus AT49 [9]) | MIC grade, A. fumigatus 210 [10] | MIC grade, A. fumigatus [11] | MIC grade, A. flavus (Aspergillus flavus [12]) | Candida MIC, C. glabrata (Candida glabrata) | Candida MIC, C. tropicalis (Candida tropicalis) | Candida MIC, C. krusei (Candida krusei) | Candida MIC, C. albicans (Candida albicans)
COCCn1c(C)cc(-c2ccccc2)c1C(=O)C(=O)Nc1ccc(N2CCN(c3ccc(CN4CCOCC4)cn3)CC2)cc1 [Example 103, 2-[1-(2-Methoxy-ethyl)-5-methyl-3-pheny-1H-pyrrol-2-yl]-N-{4-[4-(5-morpholin-4-ylmethyl-pyridin-2-yl)-piperazin-1-yl]-phenyl}-2-oxo-acetamide] | 2 (A grade of 2 represents an MIC of from 1 to 10 mg/L) | 1 (a grade of 1 represents an MIC of greater than 10 mg/L) | 2 (A grade of 2 represents an MIC of from 1 to 10 mg/L) | 3 (A grade of 3 represents an MIC of less than 1 mg/L) | 3 (A grade of 3 represents an MIC of less than 1 mg/L) | 1 (a grade of 1 represents an MIC of greater than 10 mg/L) | 2 (A grade of 2 represents an MIC of from 1 to 10 mg/L) | 3 (A grade of 3 represents an MIC of less than 1 mg/L) | 3 (A grade of 3 represents an MIC of less than 1 mg/L) | 2 (A grade of 2 represents an MIC of from 1 to 10 mg/L) | 2 (A grade of 2 represents an MIC of from 1 to 10 mg/L) | 2 (A grade of 2 represents an MIC of from 1 to 10 mg/L) | 1 (a grade of 1 represents an MIC of greater than 10 mg/L) | 3 (A grade of 3 represents an MIC of less than 1 mg/L) | 3 (A grade of 3 represents an MIC of less than 1 mg/L) | 3 (A grade of 3 represents an MIC of less than 1 mg/L) | 3 (A grade of 3 represents an MIC of less than 1 mg/L)
COCCn1c(C)cc(-c2ccccc2)c1C(=O)C(=O)Nc1ccccc1 [Example 60, 2-[1-(2-Methoxy-ethyl)-5-methyl-3-phenyl-1H-pyrrol-2-yl]-2-oxo-N-phenyl-1-acetamide] | 2 (A grade of 2 represents an MIC of from 1 to 10 mg/L) | 2 (A grade of 2 represents an MIC of from 1 to 10 mg/L) | 2 (A grade of 2 represents an MIC of from 1 to 10 mg/L) | 2 (A grade of 2 represents an MIC of from 1 to 10 mg/L) | 2 (A grade of 2 represents an MIC of from 1 to 10 mg/L) | 1 (a grade of 1 represents an MIC of greater than 10 mg/L) | 1 (a grade of 1 represents an MIC of greater than 10 mg/L) | 2 (A grade of 2 represents an MIC of from 1 to 10 mg/L) | 3 (A grade of 3 represents an MIC of less than 1 mg/L) | 1 (a grade of 1 represents an MIC of greater than 10 mg/L) | 2 (A grade of 2 represents an MIC of from 1 to 10 mg/L) | 2 (A grade of 2 represents an MIC of from 1 to 10 mg/L) | 1 (a grade of 1 represents an MIC of greater than 10 mg/L) | 3 (A grade of 3 represents an MIC of less than 1 mg/L) | 2 (A grade of 2 represents an MIC of from 1 to 10 mg/L) | 3 (A grade of 3 represents an MIC of less than 1 mg/L) | 3 (A grade of 3 represents an MIC of less than 1 mg/L)
